Measured values published in article PMC12824250 (Nature Communications, 2025).

Assays:
[1] = test system: rdMPXV^Δ96,158; assay: microbe, parasite or virus in culture; assay type: cell-based; conditions: Monkeypox virus, 30 h
[2] = test system: rdMPXV^Δ96,158; assay type: cell-based
[3] = test system: VACV; conditions: cited from earlier work
[4] = test system: VACV; conditions: in vivo; cited from earlier work

Compound	EC50 [1]	Gaussia luciferase activity [2]	mean fluorescence intensity of mGreen-positive cells [2]	cytopathic effect (CPE) inhibition [3]	protection from VACV infection [4]
Nc1ccn(C[C@@H](CO)OCP(=O)(O)O)c(=O)n1 [Cidofovir]	10.5 µM	reduced Gaussia luciferase activity	showed decreased intensity	–	–
Cc1cc(C(=O)NNC(=O)c2ccncc2)ccc1Cl [IMCBH, N1-isonicotinoly-N2-3-methyl-4-chlorobenzoylhydrazine]	–	–	–	complete cytopathic effect (CPE) inhibition	failed to protect
